Measurements published in PubChem BioAssay (NCI).
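Method: 48-hour compound exposure of cells in 96-well plates, five concentrations, linear interpolation of endpoints. GI50 is the concentration that inhibits growth by half. Definition used: TGI = concentration required for complete inhibition of growth.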

Key:
Experiment in all cases: NCI tumour cell line growth inhibition, 48 h
786-0 renal = test system: 786-0 renal
HCT-116 colon = test system: HCT-116 colon
HOP-62 NSCLC = test system: HOP-62 NSCLC
KM12 colon = test system: KM12 colon
OVCAR-4 ovarian = test system: OVCAR-4 ovarian
RPMI-8226 leukemia = test system: RPMI-8226 leukemia
SF-539 CNS = test system: SF-539 CNS
SK-MEL-5 melanoma = test system: SK-MEL-5 melanoma
SK-OV-3 ovarian = test system: SK-OV-3 ovarian
UACC-257 melanoma = test system: UACC-257 melanoma

SMILES | GI50 (786-0 renal) [µM] | TGI (786-0 renal) [µM] | GI50 (HCT-116 colon) [µM] | TGI (HCT-116 colon) [µM] | GI50 (HOP-62 NSCLC) [µM] | TGI (HOP-62 NSCLC) [µM] | GI50 (KM12 colon) [µM] | TGI (KM12 colon) [µM] | GI50 (OVCAR-4 ovarian) [µM] | TGI (OVCAR-4 ovarian) [µM] | GI50 (RPMI-8226 leukemia) [µM] | TGI (RPMI-8226 leukemia) [µM] | GI50 (SF-539 CNS) [µM] | TGI (SF-539 CNS) [µM] | GI50 (SK-MEL-5 melanoma) [µM] | TGI (SK-MEL-5 melanoma) [µM] | GI50 (SK-OV-3 ovarian) [µM] | TGI (SK-OV-3 ovarian) [µM] | GI50 (UACC-257 melanoma) [µM] | TGI (UACC-257 melanoma) [µM]
O=c1cc(-c2ccccc2)[nH]c2ccccc12 | 2.81 | > 100 | 0.547 | > 100 | 4.85 | > 100 | 0.464 | > 100 | 0.949 | > 100 | 1.18 | > 63 | 0.412 | 9.66 | 0.387 | 19.1 | 1.48 | > 92.1 | > 79.3 | > 100
CN1CCC(n2cnc(-c3ccc(F)cc3)c2-c2ccnc(NCCO)n2)CC1 | > 23.9 | > 25 | 14.5 | > 25 | > 25 | > 25 | 16.7 | > 25 | > 20.9 | > 25 | > 25 | > 25 | > 25 | > 25 | 17.2 | > 25 | > 25 | > 25 | > 25 | > 25
Nc1ccccc1C#C/C=C\C#Cc1cccs1 | 13.5 | 35.1 | 9.55 | 46.5 | 11.2 | 33.2 | 5.66 | 25.6 | 16.2 | > 50.7 | 1.25 | > 35.7 | 5.6 | 17.8 | 4.36 | 17.6 | 26.5 | > 52.3 | 23.2 | > 57.8
NCCOCCOCCNc1nc(Cc2ccccc2)nc(NCCCN2CCCC2=O)n1 | > 100 | > 100 | > 100 | > 100 | > 100 | > 100 | > 100 | > 100 | > 100 | > 100 | > 100 | > 100 | > 100 | > 100 | > 100 | > 100 | > 100 | > 100 | > 100 | > 100
CC(C)c1cc(-c2n[nH]c(=O)n2-c2ccc3c(ccn3C)c2)c(O)cc1O | 0.0686 | 45.4 | < 0.0141 | 13.5 | 0.0794 | 31.8 | 0.0221 | 0.062 | 13 | > 86.1 | < 0.0218 | 31.3 | < 0.0279 | 21.8 | < 0.0207 | 13.9 | < 0.0132 | > 43.5 | < 0.0195 | 30.6
CCOC(=O)COc1ccccc1/C=C1\CCC(CN(C)C)C1=O (stereo not given) |  | 11.7 |  | 9.36 |  | 35.8 |  | 13.3 |  | 31.8 |  | 3.48 |  | 26.6 |  | 22.4 |  | 31.4 |  | 16.3
N#C/C(=C\c1ccc(O)c(O)c1)C(N)=S |  | > 100 |  | > 100 |  | > 100 |  | > 100 |  | > 100 |  | > 100 |  | > 100 |  | > 100 |  | > 100 |  | 97.7
CC1C=C(OC(=O)c2ccccc2)C(=O)C(n2cc(F)c(=O)[nH]c2=O)O1 (stereo not given) |  | > 100 |  | > 100 |  | > 100 |  | > 100 |  | > 100 |  | > 100 |  | > 100 |  | > 100 |  | > 100 |  | > 100
COc1ccc(-c2c3c(N)nc(-c4ccncc4)nc3nc3c2c(C)nn3-c2ccccc2)cc1 | 7.12 | > 100 | 2.46 | 13.6 | 2.41 | 37.6 | 8.55 | > 100 | 3.41 | 30.8 | > 100 | > 100 | 1.93 | 4.97 | 6.79 | > 100 | 5.25 | 54 | 79.9 | > 100
COc1ccc(/C=C(/C#N)C(N)=O)cc1OC |  | > 100 |  | > 100 |  | > 100 |  | > 100 |  | > 100 |  | > 100 |  | > 100 |  | > 100 |  | > 100 |  | > 100
Cc1ccccc1[P+](Cc1ccccc1)(c1ccccc1)c1ccccc1 | 4.81 | > 100 | 1.92 | > 100 | 4.34 | > 100 | 1.12 | 15.1 | 1.91 | > 100 | 0.603 | 6.34 | 2.34 | 24.7 | 0.863 | 2.29 | 5.28 | > 100 | 0.623 | 4.23
C=CCC[CH2][Sn]([c]1ccccc1)([c]1ccccc1)[c]1ccccc1 | 1.54 | 2.87 | 0.977 | 2.15 | 2.25 | 3.99 | 1.31 | 2.58 | 1.48 | 2.86 | 1.65 | 4.37 | 1.94 | 3.52 | 1.65 | 3.02 | 1.89 | 3.57 | 1.87 | 3.33
Cc1c(C(=O)C/C(=N\O)C(=O)Nc2cc(Cl)c(Cl)cc2Cl)[n+](=O)c2ccccc2n1[O-] |  | > 100 |  | 17 |  | > 100 |  | 26.2 |  | 39.4 |  | 38.4 |  | 32.7 |  | 20.9 |  | > 100 |  | 20.2
CC1SC2=NC3=C(c4ccccc4C3=O)C(c3ccc(F)cc3)N2C1=O (stereo not given) |  | > 100 |  | > 100 |  | > 100 |  | > 100 |  | > 100 |  | > 100 |  | > 100 |  | > 100 |  | > 100 |  | > 100
